How the values were obtained:
[1] = Antiproliferative activity against human HT-29 cells measured after 48 hrs by MTT assay; assay type: functional, cell-based; settings: HT-29, 48 h
[2] = Antiproliferative activity against human MCF7 cells measured after 48 hrs by MTT assay; assay type: functional, cell-based; settings: MCF7, 48 h
[3] = biological target: Epidermal growth factor receptor (Homo sapiens, UniProt P00533)
[4] = biological target: Vascular endothelial growth factor receptor 2 (Homo sapiens, UniProt P35968); assay: Inhibition of N-terminal GST-tagged human VEGFR-2 cytoplasmic domain (790 to 1356 residues) expressed in baculovirus expression system preincubated for 10 mins followed by FAM-labelled peptide substrate addition by caliper mobility shift assay
Vascular endothelial growth factor receptor 2, sequence (P35968 whole entry, the tested form may be a part): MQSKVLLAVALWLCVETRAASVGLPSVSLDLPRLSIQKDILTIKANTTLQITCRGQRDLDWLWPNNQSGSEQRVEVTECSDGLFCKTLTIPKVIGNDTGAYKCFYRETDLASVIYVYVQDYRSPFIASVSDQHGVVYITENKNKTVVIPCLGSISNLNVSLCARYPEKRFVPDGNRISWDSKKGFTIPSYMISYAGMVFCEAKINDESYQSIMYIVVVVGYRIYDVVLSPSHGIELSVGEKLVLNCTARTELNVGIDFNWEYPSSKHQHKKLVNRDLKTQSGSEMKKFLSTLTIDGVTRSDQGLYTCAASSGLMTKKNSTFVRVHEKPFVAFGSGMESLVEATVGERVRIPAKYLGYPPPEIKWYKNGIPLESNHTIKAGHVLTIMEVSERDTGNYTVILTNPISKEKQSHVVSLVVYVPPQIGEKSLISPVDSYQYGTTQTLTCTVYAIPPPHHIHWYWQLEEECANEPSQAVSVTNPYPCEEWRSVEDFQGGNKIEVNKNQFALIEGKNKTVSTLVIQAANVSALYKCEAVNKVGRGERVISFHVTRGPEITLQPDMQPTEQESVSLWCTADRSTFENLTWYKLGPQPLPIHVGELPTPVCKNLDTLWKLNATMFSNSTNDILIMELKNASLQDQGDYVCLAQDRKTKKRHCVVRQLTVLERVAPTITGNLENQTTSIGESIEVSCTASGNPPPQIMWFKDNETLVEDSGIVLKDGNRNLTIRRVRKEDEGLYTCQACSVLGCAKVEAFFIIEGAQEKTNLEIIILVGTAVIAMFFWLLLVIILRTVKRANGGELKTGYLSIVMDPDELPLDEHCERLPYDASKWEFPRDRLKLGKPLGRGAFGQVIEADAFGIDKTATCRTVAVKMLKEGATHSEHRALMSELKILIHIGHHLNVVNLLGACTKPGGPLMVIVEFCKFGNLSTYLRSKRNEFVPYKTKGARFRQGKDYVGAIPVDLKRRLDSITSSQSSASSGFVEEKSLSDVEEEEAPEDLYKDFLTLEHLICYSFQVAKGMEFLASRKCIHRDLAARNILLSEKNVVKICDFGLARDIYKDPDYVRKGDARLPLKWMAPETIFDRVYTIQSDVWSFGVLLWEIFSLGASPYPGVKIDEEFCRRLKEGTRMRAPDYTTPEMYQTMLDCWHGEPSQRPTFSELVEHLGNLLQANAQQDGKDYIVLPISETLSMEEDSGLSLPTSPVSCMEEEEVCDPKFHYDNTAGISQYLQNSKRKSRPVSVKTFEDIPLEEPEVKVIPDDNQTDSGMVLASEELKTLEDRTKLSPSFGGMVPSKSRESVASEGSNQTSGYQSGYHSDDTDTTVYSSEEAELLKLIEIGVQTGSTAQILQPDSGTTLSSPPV

[5] = Antiproliferative activity against human H460 cells measured after 48 hrs by MTT assay; assay type: functional, cell-based; settings: NCI-H460, 48 h

Epidermal growth factor receptor, sequence (P00533 whole entry, the tested form may be a part): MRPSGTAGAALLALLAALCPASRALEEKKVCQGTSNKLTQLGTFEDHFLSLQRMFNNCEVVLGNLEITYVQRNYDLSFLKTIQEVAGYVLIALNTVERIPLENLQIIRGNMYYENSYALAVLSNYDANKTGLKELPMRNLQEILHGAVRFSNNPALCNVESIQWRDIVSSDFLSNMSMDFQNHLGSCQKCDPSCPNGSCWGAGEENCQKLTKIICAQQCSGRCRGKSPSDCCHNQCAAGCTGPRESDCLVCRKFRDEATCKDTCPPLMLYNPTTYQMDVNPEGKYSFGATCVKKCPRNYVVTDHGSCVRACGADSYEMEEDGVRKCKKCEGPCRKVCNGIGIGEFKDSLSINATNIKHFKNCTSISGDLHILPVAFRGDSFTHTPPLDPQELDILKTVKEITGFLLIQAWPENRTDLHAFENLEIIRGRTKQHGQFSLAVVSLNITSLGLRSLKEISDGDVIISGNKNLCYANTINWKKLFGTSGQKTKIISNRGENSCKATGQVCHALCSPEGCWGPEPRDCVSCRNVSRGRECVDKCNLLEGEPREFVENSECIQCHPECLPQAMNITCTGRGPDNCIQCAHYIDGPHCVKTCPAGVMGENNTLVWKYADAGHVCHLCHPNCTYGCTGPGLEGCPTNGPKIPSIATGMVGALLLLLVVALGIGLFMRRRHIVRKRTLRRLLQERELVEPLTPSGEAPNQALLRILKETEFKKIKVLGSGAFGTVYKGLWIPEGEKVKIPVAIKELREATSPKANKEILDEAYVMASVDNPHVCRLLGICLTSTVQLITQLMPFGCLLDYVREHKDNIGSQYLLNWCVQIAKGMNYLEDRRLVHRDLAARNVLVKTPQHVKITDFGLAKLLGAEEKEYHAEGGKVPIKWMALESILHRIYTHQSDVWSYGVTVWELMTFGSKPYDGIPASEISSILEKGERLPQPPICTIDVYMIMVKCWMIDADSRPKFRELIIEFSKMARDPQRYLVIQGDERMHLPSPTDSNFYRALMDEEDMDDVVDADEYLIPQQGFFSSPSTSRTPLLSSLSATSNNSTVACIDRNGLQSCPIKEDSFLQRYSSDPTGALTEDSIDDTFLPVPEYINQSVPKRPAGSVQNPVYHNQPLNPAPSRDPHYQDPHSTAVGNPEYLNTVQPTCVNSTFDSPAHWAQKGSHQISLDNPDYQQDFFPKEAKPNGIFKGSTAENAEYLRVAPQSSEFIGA

Row | IC50 [3] [µM] | IC50 [4] [µM] | SMILES | IC50 [1] [µM] | IC50 [2] [µM] | IC50 [5] [µM]
1 | 0.212 | 1.87 | COc1cc2c(Nc3ccc(NC(=O)Nc4ccccc4)c(Cl)c3)ncnc2cc1OCCN1CCCCC1 | > 50 | > 50 | > 50
2 | 0.235 | 0.815 | COc1cc2c(Nc3ccc(NC(=O)Nc4ccc(Cl)cc4)cc3)ncnc2cc1OCCCN1CCN(C)CC1 | 28.7 | > 50 | 17.8
3 | 0.001 | 0.279 | COc1cc2c(Nc3ccc(NC(=O)Nc4ccc(Cl)cc4)c(Cl)c3)ncnc2cc1OCCCN1CCN(C)CC1 | 20.7 | > 50 | 28
4 | > 10 | > 10 | COc1cc2c(Nc3ccc(NC(=O)Nc4ccc(Cl)cc4)cc3)ncnc2cc1OCc1ccccc1 | > 50 | > 50 | 38.8
5 | 0.078 | 0.014 | COc1cc2c(Nc3ccc(NC(=O)Nc4ccc(F)c(Cl)c4)c(Cl)c3)ncnc2cc1OCCCN1CCN(C)CC1 | 6.41 | 3.2 | 12.1
6 | 0.194 | 0.576 | COc1cc2c(Nc3ccc(NC(=O)Nc4ccccc4)cc3)ncnc2cc1OCCCN1CCN(C)CC1 | 49.4 | 29.1 | 28.4
7 | 0.051 | 0.014 | COc1cc2c(Nc3ccc(NC(=O)Nc4ccc(C)c(C)c4)c(Cl)c3)ncnc2cc1OCCCN1CCOCC1 | 7.29 | 2.63 | 3.52
8 | > 10 | > 10 | COc1cc2c(Nc3ccc(NC(=O)Nc4ccc(Cl)cc4)c(Cl)c3)ncnc2cc1OCCN1CCCCC1 | 4.38 | 1.89 | 5
9 | 0.817 | 0.018 | COc1cc2c(Nc3ccc(NC(=O)Nc4ccc(C)c(C)c4)c(Cl)c3)ncnc2cc1OCCN1CCCCC1 | 1.85 | 1.27 | 2.9
10 | 0.611 | 0.275 | COC(=O)CNC(=O)c1ccc(Nc2ncnc3cc(OCCCN4CCN(C)CC4)c(OC)cc23)cc1 | > 50 | > 50 | > 50
11 | > 10 | > 10 | COc1cc2c(Nc3ccc(NC(=O)Nc4ccccc4C)cc3)ncnc2cc1OCc1ccccc1 | 28.8 | > 50 | 23.9
12 | – | 0.966 | COC(=O)CNC(=O)c1ccc(Nc2ncnc3cc(OCCN4CCCCC4)c(OC)cc23)cc1 | > 50 | 8.39 | > 50
13 | > 10 | > 10 | COc1cc2c(Nc3ccc(NC(=O)Nc4ccc(C)cc4)cc3)ncnc2cc1OCc1ccccc1 | > 50 | > 50 | 25.4
14 | 0.502 | 1.99 | COc1cc2c(Nc3ccc(NC(=O)Nc4ccccc4C)cc3)ncnc2cc1OCCCN1CCN(C)CC1 | > 50 | 32.2 | 22.3
15 | – | – | COc1cc2/c(=N/c3ccc(Br)cc3F)nc[nH]c2cc1OCC1CCN(C)CC1 [VANDETANIB] | 18.9 | 11.8 | 37.1
16 | 0.5 | 0.588 | COc1cc2c(Nc3ccc(NC(=O)Nc4cccc(Cl)c4)cc3)ncnc2cc1OCCCN1CCN(C)CC1 | 22.9 | 24.7 | 8.16
17 | 0.668 | 0.214 | COc1cc2c(Nc3ccc(NC(=O)Nc4ccc(C)c(C)c4)cc3)ncnc2cc1OCCCN1CCN(C)CC1 | 25.9 | 36.5 | 22
18 | > 10 | > 10 | COc1cc2c(Nc3ccc(NC(=O)Nc4ccc(C)c(C)c4)cc3)ncnc2cc1OCc1ccccc1 | > 50 | > 50 | 49.6
19 | 2.93 | > 10 | COc1cc2c(Nc3ccc(NC(=O)Nc4ccccc4)cc3)ncnc2cc1OCc1ccccc1 | > 50 | 22.8 | > 50
20 | 0.017 | 0.528 | COc1cc2c(Nc3ccc(NC(=O)Nc4ccc(Cl)cc4)c(Cl)c3)ncnc2cc1OCCCN1CCOCC1 | 22 | 39.2 | 28
21 | 4.65 | > 10 | COc1cc2c(Nc3ccc(NC(=O)Nc4cccc(Cl)c4)cc3)ncnc2cc1OCc1ccccc1 | > 50 | > 50 | > 50
22 | 0.001 | 0.079 | COc1cc2c(Nc3ccc(NC(=O)Nc4ccc(C)c(C)c4)c(Cl)c3)ncnc2cc1OCCCN1CCN(C)CC1 | 1.76 | 7.28 | 26
23 | – | 0.178 | COc1cc2c(Nc3ccc(NC(=O)Nc4ccccc4C)c(Cl)c3)ncnc2cc1OCCCN1CCN(C)CC1 | 4.81 | 6.21 | > 50
24 | 0.014 | 0.261 | COc1cc2c(Nc3ccc(NC(=O)Nc4ccccc4)c(Cl)c3)ncnc2cc1OCCCN1CCN(C)CC1 | 17.3 | > 50 | 33
25 | 0.763 | 0.404 | COC(=O)CNC(=O)c1ccc(Nc2ncnc3cc(OCCCN4CCOCC4)c(OC)cc23)cc1 | > 50 | > 50 | > 50
